The values that follow come from article PMC10073488 (Frontiers in Pharmacology, 2023).

On the set-up of data set [1]: method as in Schnaars et al., 2023. The conditions noted are these: metformin 1000 mg, IR; fed condition; ref Schnaars et al., 2023; cited from earlier work.
The conditions of data set [2]: human, in vivo. As to the method:
There were two studies in the project. Study 1 was under the fasting state, and study 2 was under the fed state. […] The studies aimed to compare the PK profiles and safeties of the T and R drugs. The study protocols were approved by the Wuxi People’s Hospital Ethics Committee (Approval No. 2018LLPJ-I-14-03) and were conducted at Wuxi People’s Hospital Affiliated to Nanjing Medical University, Jiangsu Province, China. The studies were performed in accordance with the principles of the World Medical Association (WMA) Declaration of Helsinki. All volunteers signed written informed consents before enrollment.
Subjects received a single oral dose of the T or R drug in each period in a randomized way under either fasting or fed conditions, with a wash-out of 7 days. For the fed study, subjects finished the high-fat diet (containing protein 16.52%, fat 56.85%, carbohydrate 26.63%) in 30 min and were given the drug with 240 ml of a 20% glucose solution in water 30 min after they started eating the diet. For the fasting study, the drug was administered with 240 ml of a 20% glucose solution in water under the fasting state. An overnight fast for at least 10 h before administration was required. Subjects were not allowed to drink water 1 h before and after dosing, and lunch could be served only 4 h after dosing for both studies.
Venous blood samples (4 ml) were collected from an intravenous indwelling catheter before dosing and at 0.5, 1, 1.5, 2, 2.5, 3, 3.5, 4, 4.5, 5, 6, 7, 8, 9, 10, 11, 12, 14, 24, 32, 48, and 72 h after dosing for both fed and fasting studies. Blood samples were drawn into BD Vacutainers® with ethylene diamine tetra acetic acid (EDTA) anticoagulant. Plasma was separated by centrifugation at 2150 ± 5 g for 10 min at 2°C–8°C and stored at −20°C within 2 h after sampling and transferred to −80°C within 24 h.
Study data were summarized by descriptive statistics. The statistical analyses were performed using SAS® version 9.4. For the comparisons, Cmax, AUC0–t, and AUC0–∞ were analyzed using linear mixed models after logarithmic transformation. […] was achieved if the 90% CI of each parameter geometric means ratio (GMR) test/reference fell between 0.8–1.25. The statistical analysis included treatment, period, sequence, and subject-within-sequence as fixed effects. Tmax was compared between treatments using the non-parametric Wilcoxon signed-rank test.

For data set [3] the following is noted: sitagliptin, ref FDA, 2005, 2006, 2012; cited from earlier work.
The nature of data set [4]: Published BE studies of sitagliptin (100 mg) and sitagliptin–metformin (50/1000 mg) IR fixed-dose combination. The data set is classed as in vivo. To be noted: sitagliptin (100 mg) alone; fasting condition; published values (ref Schnaars et al., 2023) compared with own data.

As to `CN(C)C(=N)N=C(N)N` [Metformin, metformin], in data set [1], the highest concentration (Cmax) was 1592.89 ng/L and the “median Tmax” value is on record as 3.5 h. Also, in data set [2], the “Intra-individual variation of AUC0-t” value is recorded as 13.01%, the “Intra-individual variation of AUC0-∞” value was found to be 13.31% and the “Intra-individual variation of Cmax” value is given as 11.61%.
Regarding `N[C@@H](CC(=O)N1CCn2c(nnc2C(F)(F)F)C1)Cc1cc(F)c(F)cc1F` [Sitagliptin, sitagliptin], in data set [2], the “Intra-individual variation of AUC0-t” value is 6.05%, the “Intra-individual variation of AUC0-∞” value stood at 6.04% and the “Intra-individual variation of Cmax” value is listed as 19.42%. Moreover, in data set [3], the t1/2 entry is recorded as “around 12 h”. Also, the “Cmax, AUC0−t, AUC0−∞ higher than the data of this study” value in data set [4] is given as 14–32%.

By Cmax is commonly meant the peak of the concentration-time curve.
